Results on 22 molecules are retold here after US10239832B2, “N-(1-hydroxy-3-(pyrrolidinyl)propan-2-yl)pyrrolidine-3-carboxamide derivatives as glucosylceramide synthase inhibitors” (BIOMARIN PHARMACEUTICAL INC., priority 2013, dated 2019).

This assay deals with T1, GCS (Canis lupus familiaris, UniProt A0A8I3MXG6).
T1 construct: endogenous in cells; host or cells: MDCK (Madin-Darby canine kidney) cells, whole-cell lysate
T1 sequence (A0A8I3MXG6 1-394): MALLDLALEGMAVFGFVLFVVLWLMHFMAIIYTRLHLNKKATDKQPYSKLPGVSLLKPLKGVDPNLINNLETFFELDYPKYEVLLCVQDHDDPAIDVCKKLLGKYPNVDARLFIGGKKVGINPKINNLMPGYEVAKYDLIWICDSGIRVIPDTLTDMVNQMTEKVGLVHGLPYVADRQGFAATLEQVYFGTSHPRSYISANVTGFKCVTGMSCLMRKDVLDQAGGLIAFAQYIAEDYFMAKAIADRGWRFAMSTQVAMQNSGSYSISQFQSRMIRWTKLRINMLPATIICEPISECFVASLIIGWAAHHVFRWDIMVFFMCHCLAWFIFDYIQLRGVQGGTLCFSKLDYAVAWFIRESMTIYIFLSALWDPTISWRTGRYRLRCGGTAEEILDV
Briefly: GCS enzymatic assay (MDCK cell lysate, NBD-ceramide to glucosylceramide, LC/MS). It is filed as biochemical, canine. Conditions: Table 2, the table does not say which of the assays; for IC50: class symbols A, B, C, read-out: Data Range (IC50 values); for Data Range (% inhibition): class symbols D, E, F, NA (not active). In short, it runs like this: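 Dog MDCK cell lysate served as enzyme source, with NBD-ceramide turned over to glucosylceramide and 0.1% DMSO as mock control. The reaction was stopped with acetonitrile. Both lipids were quantified by LC/MS/MS in ESI positive MRM mode against a tolbutamide internal standard, giving IC50 or percent inhibition.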

For `O=C(N[C@H](CN1CCC1)[C@H](O)c1cc(F)c2c(c1)OCCO2)[C@@H]1CCN(c2ccc3cc(Cl)ccc3c2)C1` [Compound 89, (R)-N-((1R,2R)-3-(azetidin-1-yl)-1-(8-fluoro-2,3-dihydrobenzo[b][1,4]dioxin-6-yl)-1-hydroxypropan-2-yl)-1-(6-chloronaphthalen-2-yl)pyrrolidine-3-carboxamide], the concentration for half-maximal inhibition (IC50) (usually the point on the concentration scale where inhibition reaches its midpoint) is 1 to 30 nM.

As to `O=C(N[C@H](CN1CCC1)[C@H](O)c1cc(F)c2c(c1)OCCO2)C1CCN(c2ccc3cc(Cl)ccc3c2)C1` (stereo partly drawn) [Compound 89F, N-((1R,2R)-3-(azetidin-1-yl)-1-(8-fluoro-2,3-dihydrobenzo[b][1,4]dioxin-6-yl)-1-hydroxypropan-2-yl)-1-(6-chloronaphthalen-2-yl)pyrrolidine-3-carboxamide], the IC50 was in the range of 1 to 30 nM.

For the molecule `O=C(N[C@H](CN1CCC1)[C@H](O)c1cc(F)c2c(c1)OCCO2)[C@H]1CCN(c2ccc3cc(Cl)ccc3c2)C1` [Compound 89G, (S)-N-((1R,2R)-3-(azetidin-1-yl)-1-(8-fluoro-2,3-dihydrobenzo[b][1,4]dioxin-6-yl)-1-hydroxypropan-2-yl)-1-(6-chloronaphthalen-2-yl)pyrrolidine-3-carboxamide], the “Data Range (% inhibition)” value was “E (50-74% (or less than 75%))”.

As to `O=C(N[C@H](CN1CCCC1)[C@H](O)c1ccc2c(c1)OCCO2)[C@@H]1CCN(c2cnc3cccnc3c2)C1` [Compound 90, (R)-N-((1R,2R)-1-(2,3-dihydrobenzo[b][1,4]dioxin-6-yl)-1-hydroxy-3-(pyrrolidin-1-yl)propan-2-yl)-1-(1,5-naphthyridin-3-yl)pyrrolidine-3-carboxamide], the “Data Range (% inhibition)” value is “F (1-49% (or less than 50%))”.

With `O=C(N[C@H](CN1CCCC1)[C@H](O)c1ccc2c(c1)OCCO2)[C@H]1CCN(c2cnc3cccnc3c2)C1` [Compound 90D, (S)-N-((1R,2R)-1-(2,3-dihydrobenzo[b][1,4]dioxin-6-yl)-1-hydroxy-3-(pyrrolidin-1-yl)propan-2-yl)-1-(1,5-naphthyridin-3-yl)pyrrolidine-3-carboxamide], the “Data Range (% inhibition)” value was “F (1-49% (or less than 50%))”.

`O=C(N[C@H](CN1CCCC1)[C@H](O)c1ccc(OC2CC2)c(Cl)c1)[C@@H]1CCN(c2ccc3ccsc3c2)C1` [Compound 91, (R)-1-(benzo[b]thiophen-6-yl)-N-((1R,2R)-1-(3-chloro-4-cyclopropoxyphenyl)-1-hydroxy-3-(pyrrolidin-1-yl)propan-2-yl)pyrrolidine-3-carboxamide]: the IC50 was in the range of 1 to 30 nM.

Regarding `O=C(N[C@H](CN1CCCC1)[C@H](O)c1ccc(OC2CCOCC2)c(Cl)c1)[C@@H]1CCN(c2ccc3ccsc3c2)C1` [Compound 92, (R)-1-(benzo[b]thiophen-6-yl)-N-((1R,2R)-1-(3-chloro-4-((tetrahydro-2H-pyran-4-yl)oxy)phenyl)-1-hydroxy-3-(pyrrolidin-1-yl)propan-2-yl)pyrrolidine-3-carboxamide], the IC50 lay within 1 to 30 nM.

Consider `O=C(N[C@H](CN1CCCC1)[C@H](O)c1cc(F)c2c(c1)OCCO2)[C@@H]1CCN(c2ccc3c(c2)CCCC3)C1` [Compound 93, (R)-N-((1R,2R)-1-(8-fluoro-2,3-dihydrobenzo[b][1,4]dioxin-6-yl)-1-hydroxy-3-(pyrrolidin-1-yl)propan-2-yl)-1-(5,6,7,8-tetrahydronaphthalen-2-yl)pyrrolidine-3-carboxamide], for which the IC50 lay within 1 to 30 nM.

Take `O=C(N[C@H](CN1CCCC1)[C@H](O)c1cc(F)c2c(c1)OCCO2)[C@H]1CCN(c2ccc3c(c2)CCCC3)C1` [Compound 93A, (S)-N-((1R,2R)-1-(8-fluoro-2,3-dihydrobenzo[b][1,4]dioxin-6-yl)-1-hydroxy-3-(pyrrolidin-1-yl)propan-2-yl)-1-(5,6,7,8-tetrahydronaphthalen-2-yl)pyrrolidine-3-carboxamide]: the “Data Range (% inhibition)” value is “E (50-74% (or less than 75%))”.

As to `O=C(N[C@H](CN1CCCC1)[C@H](O)c1ccc(OC2CCOCC2)c(Cl)c1)[C@@H]1CCN(c2ccc3ccccc3c2)C1` [Compound 94, (R)-N-((1R,2R)-1-(3-chloro-4-((tetrahydro-2H-pyran-4-yl)oxy)phenyl)-1-hydroxy-3-(pyrrolidin-1-yl)propan-2-yl)-1-(naphthalen-2-yl)pyrrolidine-3-carboxamide], the IC50 lay within 1 to 30 nM.

For the molecule `O=C(N[C@H](CN1CCC1)[C@H](O)c1ccc(OC2CC2)c(Cl)c1)[C@@H]1CCN(c2ccc3cc(F)ccc3c2)C1` [Compound 95, (R)-N-((1R,2R)-3-(azetidin-1-yl)-1-(3-chloro-4-cyclopropoxyphenyl)-1-hydroxypropan-2-yl)-1-(6-fluoronaphthalen-2-yl)pyrrolidine-3-carboxamide], the “Data Range (% inhibition)” value is on record as “D (75-100%)”.

For `O=C(N[C@H](CN1CCCC1)[C@H](O)c1ccc(OC2CC2)c(Cl)c1)[C@@H]1CCN(c2ccc(F)cc2)C1` [Compound 96, (R)-N-((1R,2R)-1-(3-chloro-4-cyclopropoxyphenyl)-1-hydroxy-3-(pyrrolidin-1-yl)propan-2-yl)-1-(4-fluorophenyl)pyrrolidine-3-carboxamide], the half-maximal inhibitory concentration (IC50) lay within 1 to 30 nM.

Turning to `O=C(N[C@H](CN1CCCC1)[C@H](O)c1cc(F)c2c(c1)OCCO2)[C@@H]1CCN(c2ccc3ccsc3c2)C1` [Compound 97, (R)-1-(benzo[b]thiophen-6-yl)-N-((1R,2R)-1-(8-fluoro-2,3-dihydrobenzo[b][1,4]dioxin-6-yl)-1-hydroxy-3-(pyrrolidin-1-yl)propan-2-yl)pyrrolidine-3-carboxamide], the IC50 lay within 1 to 30 nM.

With `O=C(N[C@H](CN1CCCC1)[C@H](O)c1cc(F)c2c(c1)OCCO2)[C@H]1CCN(c2ccc3ccsc3c2)C1` [Compound 97C, (S)-1-(benzo[b]thiophen-6-yl)-N-((1R,2R)-1-(8-fluoro-2,3-dihydrobenzo[b][1,4]dioxin-6-yl)-1-hydroxy-3-(pyrrolidin-1-yl)propan-2-yl)pyrrolidine-3-carboxamide], the “Data Range (% inhibition)” value was “E (50-74% (or less than 75%))”.

As to `O=C(N[C@H](CN1CCCC1)[C@H](O)c1ccc(OC2CC2)c(Cl)c1)[C@@H]1CCN(c2ccc3c(c2)CCCC3)C1` [Compound 98, (R)-N-((1R,2R)-1-(3-chloro-4-cyclopropoxyphenyl)-1-hydroxy-3-(pyrrolidin-1-yl)propan-2-yl)-1-(5,6,7,8-tetrahydronaphthalen-2-yl)pyrrolidine-3-carboxamide], the “Data Range (% inhibition)” value is listed as “D (75-100%)”.

For the molecule `O=C(N[C@H](CN1CCCC1)[C@H](O)c1ccc(OC2CC2)c(Cl)c1)[C@H]1CCN(c2ccc3c(c2)CCCC3)C1` [Compound 98A, (S)-N-((1R,2R)-1-(3-chloro-4-cyclopropoxyphenyl)-1-hydroxy-3-(pyrrolidin-1-yl)propan-2-yl)-1-(5,6,7,8-tetrahydronaphthalen-2-yl)pyrrolidine-3-carboxamide], the “Data Range (% inhibition)” value is on record as “F (1-49% (or less than 50%))”.

With `O=C(N[C@H](CN1CCCC1)[C@H](O)c1ccc2c(c1)OCCO2)[C@@H]1CCN(c2ccc3cc(Cl)ccc3n2)C1` [Compound 99, (R)-1-(6-chloroquinolin-2-yl)-N-((1R,2R)-1-(2,3-dihydrobenzo[b][1,4]dioxin-6-yl)-1-hydroxy-3-(pyrrolidin-1-yl)propan-2-yl)pyrrolidine-3-carboxamide], the IC50 was 1 to 30 nM.

Turning to `O=C(N[C@H](CN1CCCC1)[C@H](O)c1ccc2c(c1)OCCO2)C1CCN(c2ccc3cc(Cl)ccc3n2)C1` (stereo partly drawn) [Compound 99C, 1-(6-chloroquinolin-2-yl)-N-((1R,2R)-1-(2,3-dihydrobenzo[b][1,4]dioxin-6-yl)-1-hydroxy-3-(pyrrolidin-1-yl)propan-2-yl)pyrrolidine-3-carboxamide], the IC50 lay within 1 to 30 nM.

`O=C(N[C@H](CN1CCCC1)[C@H](O)c1ccc2c(c1)OCCO2)[C@H]1CCN(c2ccc3cc(Cl)ccc3n2)C1` [Compound 99D, (S)-1-(6-chloroquinolin-2-yl)-N-((1R,2R)-1-(2,3-dihydrobenzo[b][1,4]dioxin-6-yl)-1-hydroxy-3-(pyrrolidin-1-yl)propan-2-yl)pyrrolidine-3-carboxamide]: the “Data Range (% inhibition)” value is “F (1-49% (or less than 50%))”.

Turning to `O=C(N[C@H](CN1CCCC1)[C@H](O)c1ccc(OC2CC2)c(Cl)c1)[C@@H]1CCN(c2ccc3cc(Cl)ccc3n2)C1` [Compound 100, (R)-N-((1R,2R)-1-(3-chloro-4-cyclopropoxyphenyl)-1-hydroxy-3-(pyrrolidin-1-yl)propan-2-yl)-1-(6-chloroquinolin-2-yl)pyrrolidine-3-carboxamide], the IC50 fell in the range of 1 to 30 nM.

For the molecule `O=C(N[C@H](CN1CCCC1)[C@H](O)c1ccc(OC2CCOCC2)c(Cl)c1)[C@@H]1CCN(c2ccc3cc(Cl)sc3c2)C1` [Compound 101, (R)-N-((1R,2R)-1-(3-chloro-4-((tetrahydro-2H-pyran-4-yl)oxy)phenyl)-1-hydroxy-3-(pyrrolidin-1-yl)propan-2-yl)-1-(2-chlorobenzo[b]thiophen-6-yl)pyrrolidine-3-carboxamide], the IC50 was 1 to 30 nM.

`CC(C)(O)COc1ccc([C@@H](O)[C@@H](CN2CCCC2)NC(=O)[C@@H]2CCN(c3ccc4cc(F)ccc4c3)C2)cc1Cl` [Compound 102, (R)-N-((1R,2R)-1-(3-chloro-4-(2-hydroxy-2-methylpropoxy)phenyl)-1-hydroxy-3-(pyrrolidin-1-yl)propan-2-yl)-1-(6-fluoronaphthalen-2-yl)pyrrolidine-3-carboxamide]: the IC50 fell in the range of 1 to 30 nM.
